Reference: PMC5445283, “Selection and characterization of alanine racemase inhibitors against Aeromonas hydrophila” (BMC Microbiology, 2017)
Values after ≈ are worked out from the molar mass of the structure shown. Values joined by “and” are separate entries in the source; they are usually repeats but may differ in a detail not shown here. Equal entries are not always repeated. “Also recorded” adds a separate entry of the source. Structures can show the parent of a compound that is named as a salt. Where two headings read alike, the source gives them in different places.

Legend:
alanine racemase Alr-2 [1] = molecular target: T1, alanine racemase Alr-2 (Aeromonas hydrophila, UniProt A0KL98); experiment: biochemical
T1 sequence (A0KL98 entry or part of it): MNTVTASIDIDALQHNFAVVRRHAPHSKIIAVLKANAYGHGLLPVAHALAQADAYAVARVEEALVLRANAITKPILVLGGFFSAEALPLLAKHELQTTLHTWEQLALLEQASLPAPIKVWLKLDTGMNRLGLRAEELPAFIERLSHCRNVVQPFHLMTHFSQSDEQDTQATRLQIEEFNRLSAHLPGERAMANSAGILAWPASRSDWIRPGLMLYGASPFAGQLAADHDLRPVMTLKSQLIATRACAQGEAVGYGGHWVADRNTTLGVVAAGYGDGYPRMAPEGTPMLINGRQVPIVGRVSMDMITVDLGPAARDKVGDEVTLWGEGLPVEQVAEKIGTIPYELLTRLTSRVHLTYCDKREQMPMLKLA
Experimental: Alanine racemase activity was measured at room temperature in the L → D direction using a spectrophotometric assay. The assay was modified by varying the volume to 100 μl and dividing it into two steps (Fig. 1).
The first step (F1) is the production of the D-form amino acids. The optimized enzyme assay reaction mixture consisted of 10 μM PLP, 12.5 mM of NaHCO3-NaOH buffer (pH 11), and 50 mM L-alanine and alanine racemase. A total of 100 μl of this reaction mixture was added to the wells of a 96-well plate. After incubation at 35 °C for 10 min, the reaction was terminated by adding 12.5 μl of 2 M HCl, and the incubation was continued for 2 min on ice. The reaction mixture was centrifuged at 10,000 RPM, for 10 min at 4 °C, and 10 μl of 2 M NaOH was added to neutralize the reaction mixture. The second step (F2) is the conversion of D-alanine to α-keto acids using D-amino acid oxidase (DAAO). The formation of H2O2 from this reaction can be quantified using horseradish peroxidase (HRP) at 550 nm. The DAAO reaction mixture contained 200 mM of Tris-HCl (pH 8.0), 0.1 mg/ml 4-aminoantipyrine (AAP), 0.1 mg/ml N-ethyl-N-(2-hydroxy-3-sulfopropyl)-m-toluidine sodium salt (TOOS), 2 units of HRP, 0.1 unit of DAAO and D-form amino acid solution in a final volume of 100 μl. The negative control for the enzyme assay was prepared using the same procedure but without enzyme. After incubating at 37 °C for 30 min, the absorbance was measured at 550 nm using a Spectra MAX 190 microplate reader (Molecular Devices Corp., USA). One unit (U) of enzyme was defined as the amount of purified enzyme that catalyzed the formation of 1 μmol of D-alanine from L-alanine per minute.
Each well (sample, control, and their blanks) contained the screening assay reaction mixture of 10 μM PLP and 12.5 mM NaHCO3-NaOH buffer (pH 11). Next, 4 μl of test substance (small molecular compounds or natural product extracts) was added to the sample and sample blank test tubes. Finally, […] alanine racemase was added to the sample and control test tubes while the same volume of DMSO was added to the sample blank and control blank test tubes. After incubation at 4 °C for 30 min, 50 mM L-alanine was added to the sample and control test wells while DMSO was added to the sample blank and control blank test wells to obtain a final volume of 100 μl. The control and control blank were defined as 100% and 0% of enzyme activity. The reaction was then carried out as described for the alanine racemase assay. The assay is divided into two steps: absorbance was measured at 550 nm at the end of the first (F1), and second (F2) steps and ΔF was defined as F2-F1. Inhibition activity was calculated from the following equation.
Fourfold dilution series (in DMSO) were prepared for all the compounds, and the solutions were added to the wells of a 96-well plate to yield the final inhibitory concentrations. Each concentration was tested in triplicate. The substrate was added after incubation for 30 min, and the fluorescence intensity was measured after the reaction. The positive control (D-cycloserine, DCS) was diluted in DMSO, and the negative control was prepared without adding an inhibitor to the control wells of each plate. Percentage inhibition at each inhibitor concentration was calculated with respect to the negative control. The results were analyzed using the SPSS 16.0 IBM modeler to calculate the compound concentration that causes 50% inhibition (IC50).

HeLa cells = format: cell-based; conditions: for TC50, cytotoxicity in HeLa cells: MTT, 48 h exposure, average values with standard deviations, NC: non calculable as the values are too high; for cytotoxicity, in words: MTT assay, HeLa / mammalian cells
Experimental: This assay was performed in a 96-well plate format and used HeLa cells. The cell viability was determined using 3-(4,5-dimethyl-2-thiazole)-2,5-diphenyl-2H-tetrazolium bromide (MTT, Sigma-Aldrich). Cells were seeded in culture medium in microplates (4000 cells/well) and incubated at 37 °C for 24 h before drug treatments. […] The cells were exposed to the compounds for 48 h. At the end of the incubation, the cells were exposed to MTT (0.5 mg/ml) at 37 °C for 4 h. The reduced crystals were dissolved in DMSO, and absorbance was detected at 490 nm. The […] were set as zero absorbance. The percentage of cell survival was calculated using the background-corrected absorbance as follows: Cell survival (%) = (ODexperiment/ODcontrol) × 100. The data represent the mean and standard deviation from triplicate determination.

A. hydrophila Δalr-2 = format: cell-based, Aeromonas hydrophila; conditions: for MIC against A.hydrophila Δalr-2: average values with standard deviations in parentheses, NC: non calculable as the values are too high
Experimental: A. hydrophila HBNUAh01 isolated from infected Paralichthys olivaceus and an A. hydrophila alr-2 knockout mutant were used in this study. Escherichia coli BL-21(DE3) cells were used for protein expression. The pET-25b-alr2 plasmid was used for protein expression. The A. hydrophila and E. coli strains were cultured in Luria-Bertani (LB) medium at 30 °C and 37 °C, respectively. For plasmid selection, 0.5 mmol/l ampicillin (AMP, Sigma–Aldrich Inc., USA) was added to the LB medium for experiments with E. coli.
(§1) A. hydrophila was cultured for 18 h, washed with PBS (pH 7.2), and adjusted to an OD600 value of 0.5. Next, the culture was diluted tenfold five times, and aliquots were spread on LB agar in triplicate to determine the number of colony-forming units (CFU)/ml.
(§2) The minimum inhibitory concentration (MIC) of the chemical compounds against A. hydrophila was determined using the microdilution method in accordance with the guidelines of the Clinical and Laboratory Standards Institute, document M31-A3 [16], following the method described by Dal Pozzo et al.. Compounds were diluted in DMSO at concentrations of 80, 40, 20, or 10 μg/ml. Appropriate controls were included in all tests. DCS is a naturally occurring antibacterial compound that targets alanine racemase involved in peptidoglycan synthesis. DCS was used as a positive control ([…]), DMSO solvent was used as a negative control for growth inhibition and DMSO alone was used as the blank control. All tests were performed in triplicate. The inoculum was prepared in LB culture medium (1 × 10^8 CFU/ml; OD600 = 0.3) and cultured at 30 °C/20 h. The inoculum (100 μl; 1 × 10^5 CFU) was added to each well containing compounds. The microplates were incubated at 30 °C for 20 h.

A. hydrophila = experiment: Antimicrobial susceptibility test, MIC by microdilution; format: cell-based, Aeromonas hydrophila; conditions: for MIC: Aeromonas hydrophila, read-out: MIC against A.hydrophila; for growth inhibition of A. hydrophila, in words: screen for antimicrobial activity
Experimental: as §1, §2

[2] = test system: D-amino acid oxidase (DAAO) and horseradish peroxidase (HRP); experiment: Assay interference counter screen (second step of the assay); format: biochemical; conditions: for inhibition of second-step enzymes / assay interference, in words: HRP and DAAO, within a concentration of 50 μM; for IC50: DAAO/HRP reaction, 10 μM D-ala as substrate, read-out: IC50 on the enzymes in the second step (counter screen)
Experimental: To eliminate the inhibitory effects of the compounds on DAAO and HRP, a counter screening assay was performed as described above. The first-step assay mixtures without alanine racemase and L-alanine were added to each test well, followed by the addition of a twofold dilution series (in DMSO) of the inhibitors to the sample test wells, and finally, the addition of DMSO to the blank control wells. Then, DMSO was added to each well to obtain reaction mixtures at a final volume of 100 μl.
Second, the D-amino acid oxidase reaction mixture was prepared using 10 μM D-ala as the substrate. The control and control blank for the enzyme assay was prepared with or without 10 μM D-ala and absorbance was measured at 550 nm.

Caco-2 cells = test system: Caco-2 cells; design: method as in PMID 22146584; conditions: cited from earlier work
alanine racemase Alr-2 [3] = molecular target: T1, alanine racemase Alr-2; experiment: Kinetics of alanine racemase inhibition (Lineweaver-Burk); format: biochemical; conditions: for Ki: Lineweaver-Burk analysis, read-out: inhibition constant Ki; for type (mode) of inhibition: Lineweaver-Burk profile
Experimental: The mode of inhibition of the enzyme by the compounds was determined as follows. The experiment was composed of three sets of reactions in which each set consisted of four concentrations of substrate in the presence of fixed amounts of alanine racemase, and three different concentrations of inhibitors were used. For homogentisic acid and hydroquinone, 0, 0.02 and 0.04 mg/ml were used. The reactions were made as described. The amount of product was determined spectrophotometrically and subsequently the standard curve was used to obtain reaction velocities. A double reciprocal plot (1/V versus 1/[S]), where V is reaction velocity and [S] is substrate concentration, was plotted. The type (mode) of inhibition of enzyme activity by the compounds was determined by analysis of the double reciprocal (Lineweaver-Burk) plot using Michaelis-Menten kinetics. The inhibition constant (K i) of the inhibitors was determined.

[4] = average values with standard deviations in parentheses, read-out: IC50 against Alr-2 with PLP
[5] = average values with standard deviations in parentheses, NC: non calculable as the values are too high

Which IC50 (alanine racemase Alr-2 [1]) does the source give for `Oc1ccc(CC2NCCc3cc(O)c(O)cc32)cc1` (centres unmarked) [Compound I-9, Higenamine] here?
Its IC50 is 14.3 µM.

Which IC50 (alanine racemase Alr-2 [1]; [4]) does the source give for `Oc1cc2c(cc1O)C1c3ccc(O)c(O)c3OCC1(O)C2` (centres unmarked) [Compound I-8, Haematoxylin] here?
The IC50 was 15.6 µM.

With `CCCOC(=O)c1cc(O)c(O)c(O)c1` [Compound I-5, Propyl Gallate] as the compound, how does the IC50 (alanine racemase Alr-2 [1]; [4]) read?
Its IC50 is 8.6 µM.

Which IC50 (alanine racemase Alr-2 [1]; [4]) does the source give for `N[C@@H]1CON=C1O` [DCS, D-cycloserine, reference compound] here?
Its IC50 is 5.4 µM.

What about the “TC50, cytotoxicity in HeLa cells” value (HeLa cells) of the same compound?
Its value is 149.6 μg/ml and 149.6(5.9) μg/ml.

What about the “MIC against A.hydrophila Δalr-2” value (A. hydrophila Δalr-2) of the same compound?
Its value is 50(2.9) μg/ml.

What about the MIC (A. hydrophila; [5]) of the same compound?
The MIC was 25 µg/mL (≈ 245 µM).

Which IC50 (alanine racemase Alr-2 [1]; [4]) does the source give for Anabellamide [Compound I-1] here?
The IC50 was 6.6 µM.

Which IC50 (alanine racemase Alr-2 [1]) does the source give for `O=C1C=C2C(=CCOC2O)O1` (centres unmarked) [Compound I-2, Patulin] here?
Its IC50 is 14.7 µM.

And the “inhibition of second-step enzymes / assay interference, in words” value [2]?
The value was “weak inhibition”.

What about the “inhibition of second-step enzymes / assay interference, in words” value ([2]; listed as patulin) of the same compound?
The value was “No assay interference”.

What about the “IC50 against Caco-2 cells” value (Caco-2 cells) of the same compound?
Its value is 0.62 µg/mL (≈ 4.02 µM).

What about the “MIC against A.hydrophila Δalr-2” value (A. hydrophila Δalr-2) of the same compound?
The value was 80(3.96) μg/ml.

What about the MIC (A. hydrophila) of the same compound?
Its MIC is 20 µg/mL (≈ 130 µM).

What about the “growth inhibition of A. hydrophila, in words” value (from here on “growth inhibition”) (A. hydrophila) of the same compound?
The value was “inhibit the growth of A. hydrophila significantly”.

For `O=C(O)Cc1cc(O)ccc1O` [Compound I-3, Homogentisic acid], which IC50 (alanine racemase Alr-2 [1]) is on record?
The IC50 was 12.5 µM.

And the IC50 [2]?
The IC50 was 96.1 µM.

And the “inhibition of second-step enzymes / assay interference, in words” value [2]?
The value was “No assay interference”.

And the Ki (alanine racemase Alr-2 [3])?
Its Ki is 51.7 µM.

What about the “type (mode) of inhibition” value (alanine racemase Alr-2 [3]) of the same compound?
Its value is “competitive type of inhibition”.

What about the “cytotoxicity, in words” value (HeLa cells) of the same compound?
The value was “minimal cytotoxicity”.

And the “TC50, cytotoxicity in HeLa cells” value (HeLa cells)?
Its value is 157.7 μg/ml and 157.7(6.1) μg/ml.

What about the “antimicrobial activity against A. hydrophila Δalr-2, in words” value (A. hydrophila Δalr-2) of the same compound?
The value was “no antimicrobial activity”.

And the MIC (A. hydrophila; [5])?
Its MIC is 120 µg/mL (≈ 714 µM).

What about the “growth inhibition” value (A. hydrophila) of the same compound?
Its value is “inhibit the growth of A. hydrophila significantly”.

Which IC50 (alanine racemase Alr-2 [1]; [4]) does the source give for `O=C(O)CCc1ccccc1Nc1c2ccccc2nc2ccccc12` [Compound I-7, Benzenepropanoic acid,2-(9-acridinylamino)-monohydrochloride] here?
The IC50 was 17.7 µM.

Which IC50 (alanine racemase Alr-2 [1]; [4]) does the source give for `CCCCC1(C)C=CC(=C2C(=O)OC(=CC(=O)O)C2=O)O1` (centres unmarked) [Compound I-4, Acetic acid,[4-(5-butyl-5-methyl-2(5H)-furanylidene)dihydro −3,5-dioxo-2(3H)-furanylidene]-(9CI)] here?
The IC50 was 8.9 µM.

Which IC50 (alanine racemase Alr-2 [1]) does the source give for `Oc1ccc(O)cc1` [Compound I-6, Hydroquinone] here?
The IC50 was 18.5 µM.

And the IC50 [2]?
Its IC50 is 113 µM.

And the “inhibition of second-step enzymes / assay interference, in words” value [2]?
Its value is “No assay interference”.

And the Ki (alanine racemase Alr-2 [3])?
The Ki was 212 µM.

And the “type (mode) of inhibition” value (alanine racemase Alr-2 [3])?
The value was “noncompetitive inhibitor; also recorded: noncompetitive type of inhibition”.

And the “cytotoxicity, in words” value (HeLa cells)?
The value was “minimal cytotoxicity”.

And the “TC50, cytotoxicity in HeLa cells” value (HeLa cells)?
The value was 122.9 μg/ml and 122.9(8.9) μg/ml.

What about the “MIC against A.hydrophila Δalr-2” value (A. hydrophila Δalr-2) of the same compound?
The value was 140(2.4) μg/ml.

What about the MIC (A. hydrophila; [5]) of the same compound?
The MIC was 80 µg/mL (≈ 727 µM).

And the “growth inhibition” value (A. hydrophila)?
Its value is “inhibit the growth of A. hydrophila significantly”.

For `O=c1c(O)c(-c2ccc(O)c(O)c2)oc2cc(O)cc(O)c12` [Compound I-10, Quercetin], which IC50 (alanine racemase Alr-2 [1]) is on record?
Its IC50 is 15.5 µM.
